Assays:
human β1 or β2 receptors = assay: Inverse agonist activity: inhibition of basal adenylyl cyclase activity (cAMP generation) in Sf9 membranes; assay type: biochemical; details: concentration 10×Ki for the β2 receptor
Procedure: Sf9 cells were transfected with a baculovirus expression system coding for human β1 or β2 receptors as described in Chidiac et al., Molec.
Adenylyl cyclase activity of Sf9 membranes was measured as described in Chidiac et al., Molec. […] The inhibition of basal cAMP generation in this system is a measure of inverse agonism.

[1] = system: β1, β2 and α1 adrenergic receptors; details: Yoshikawa et al., Eur. Heart J. 1996; cited from earlier work

CC(C)(Cc1c[nH]c2ccccc12)NCC(O)COc1ccccc1C#N (centres unmarked) [bucindolol]
rank order of inverse agonist activity (FIG. 1B) (human β1 or β2 receptors): metoprolol>propranolol≥carvedilol>xamoterol>bucindolol | adrenergic receptor subtype selectivity / rank order of potency [1]: nonselective for β1 and β2 adrenergic receptors
